Source: ChEMBL document CHEMBL5226288, “A perspective on medicinal chemistry approaches towards adenomatous polyposis coli and Wnt signal based colorectal cancer inhibitors” (Eur J Med Chem, 2021)
pIC50: −log10 of the molar value. Blank lines part the entries; values can stand above or below the compound they belong to.

Columns and labels:
DLD-1 [1] = assay: Antiproliferative activity against human DLD-1 cells assessed as reduction in cell viability by MTS assay; format: functional, cell-based
HCT-116 [2] = assay: Antiproliferative activity against human HCT-116 cells assessed as reduction in cell viability incubated for 48 hrs by MTT assay; format: functional, cell-based
SW480 [3] = assay: Antiproliferative activity against human SW480 cells assessed as reduction in cell viability incubated for 48 hrs by MTT assay; format: functional, cell-based; details: SW480, 48 h
Mus musculus = species: Mus musculus; assay: Anticancer activity against C57BL/6J mouse small intestine organoid assessed as decrease in cell growth and measured after 4 days by qPCR analysis; format: functional; details: 96 h
SW480 [4] = assay: Antiproliferative activity against human SW480 cells assessed as inhibition of cell growth incubated for 48 hrs by MTS assay; format: functional, cell-based; details: SW480, 48 h
HCT-116 [5] = assay: Anticancer activity against human HCT-116 cells assessed as reduction in cell growth incubated for 72 hrs by MTT assay; format: functional, cell-based; details: HCT-116, 72 h
SW480 [6] = assay: Anticancer activity against human SW480 cells assessed as reduction in cell growth incubated for 72 hrs by MTT assay; format: functional, cell-based; details: SW480, 72 h
DLD-1 [7] = assay: Anticancer activity against human DLD-1 cells assessed as reduction in cell growth incubated for 72 hrs by MTT assay; format: functional, cell-based; details: DLD-1, 72 h
[8] = molecular target: T1, Poly [ADP-ribose] polymerase tankyrase-2 (Homo sapiens, UniProt Q9H2K2); assay: Inhibition of TNKS2 (unknown origin)
T1 sequence (Q9H2K2 whole entry): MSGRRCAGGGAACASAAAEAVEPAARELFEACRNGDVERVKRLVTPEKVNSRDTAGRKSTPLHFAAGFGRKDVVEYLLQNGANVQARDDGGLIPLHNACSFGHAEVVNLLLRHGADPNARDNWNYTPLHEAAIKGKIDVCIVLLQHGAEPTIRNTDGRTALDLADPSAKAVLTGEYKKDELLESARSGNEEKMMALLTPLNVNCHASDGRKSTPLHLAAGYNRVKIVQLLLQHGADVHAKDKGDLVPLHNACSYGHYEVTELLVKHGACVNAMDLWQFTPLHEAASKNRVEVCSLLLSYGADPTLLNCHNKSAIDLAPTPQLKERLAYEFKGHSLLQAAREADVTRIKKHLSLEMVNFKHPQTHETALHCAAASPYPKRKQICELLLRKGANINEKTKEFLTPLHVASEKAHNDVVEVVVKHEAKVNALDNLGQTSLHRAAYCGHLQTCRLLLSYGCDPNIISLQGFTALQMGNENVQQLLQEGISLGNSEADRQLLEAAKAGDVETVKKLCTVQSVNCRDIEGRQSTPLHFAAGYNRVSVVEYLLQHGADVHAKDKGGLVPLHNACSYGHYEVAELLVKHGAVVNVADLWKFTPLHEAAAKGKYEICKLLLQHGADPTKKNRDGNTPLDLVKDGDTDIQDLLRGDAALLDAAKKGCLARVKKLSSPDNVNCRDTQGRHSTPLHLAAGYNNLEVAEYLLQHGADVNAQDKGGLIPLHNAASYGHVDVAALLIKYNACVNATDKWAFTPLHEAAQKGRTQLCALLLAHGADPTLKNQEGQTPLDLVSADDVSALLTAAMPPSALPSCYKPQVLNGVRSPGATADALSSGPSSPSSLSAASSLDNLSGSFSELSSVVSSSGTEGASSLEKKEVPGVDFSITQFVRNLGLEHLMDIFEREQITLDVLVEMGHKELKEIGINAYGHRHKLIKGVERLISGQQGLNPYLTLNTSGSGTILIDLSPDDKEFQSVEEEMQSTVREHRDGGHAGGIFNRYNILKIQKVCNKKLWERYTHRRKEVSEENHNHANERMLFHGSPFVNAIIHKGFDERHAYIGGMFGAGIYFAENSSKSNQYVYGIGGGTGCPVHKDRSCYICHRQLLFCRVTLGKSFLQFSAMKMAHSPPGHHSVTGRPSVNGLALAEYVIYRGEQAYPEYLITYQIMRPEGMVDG

[9] = molecular target: T2, Poly [ADP-ribose] polymerase tankyrase-1 (Homo sapiens, UniProt O95271); assay: Inhibition of TNKS1 (unknown origin)
T2 sequence (O95271 whole entry): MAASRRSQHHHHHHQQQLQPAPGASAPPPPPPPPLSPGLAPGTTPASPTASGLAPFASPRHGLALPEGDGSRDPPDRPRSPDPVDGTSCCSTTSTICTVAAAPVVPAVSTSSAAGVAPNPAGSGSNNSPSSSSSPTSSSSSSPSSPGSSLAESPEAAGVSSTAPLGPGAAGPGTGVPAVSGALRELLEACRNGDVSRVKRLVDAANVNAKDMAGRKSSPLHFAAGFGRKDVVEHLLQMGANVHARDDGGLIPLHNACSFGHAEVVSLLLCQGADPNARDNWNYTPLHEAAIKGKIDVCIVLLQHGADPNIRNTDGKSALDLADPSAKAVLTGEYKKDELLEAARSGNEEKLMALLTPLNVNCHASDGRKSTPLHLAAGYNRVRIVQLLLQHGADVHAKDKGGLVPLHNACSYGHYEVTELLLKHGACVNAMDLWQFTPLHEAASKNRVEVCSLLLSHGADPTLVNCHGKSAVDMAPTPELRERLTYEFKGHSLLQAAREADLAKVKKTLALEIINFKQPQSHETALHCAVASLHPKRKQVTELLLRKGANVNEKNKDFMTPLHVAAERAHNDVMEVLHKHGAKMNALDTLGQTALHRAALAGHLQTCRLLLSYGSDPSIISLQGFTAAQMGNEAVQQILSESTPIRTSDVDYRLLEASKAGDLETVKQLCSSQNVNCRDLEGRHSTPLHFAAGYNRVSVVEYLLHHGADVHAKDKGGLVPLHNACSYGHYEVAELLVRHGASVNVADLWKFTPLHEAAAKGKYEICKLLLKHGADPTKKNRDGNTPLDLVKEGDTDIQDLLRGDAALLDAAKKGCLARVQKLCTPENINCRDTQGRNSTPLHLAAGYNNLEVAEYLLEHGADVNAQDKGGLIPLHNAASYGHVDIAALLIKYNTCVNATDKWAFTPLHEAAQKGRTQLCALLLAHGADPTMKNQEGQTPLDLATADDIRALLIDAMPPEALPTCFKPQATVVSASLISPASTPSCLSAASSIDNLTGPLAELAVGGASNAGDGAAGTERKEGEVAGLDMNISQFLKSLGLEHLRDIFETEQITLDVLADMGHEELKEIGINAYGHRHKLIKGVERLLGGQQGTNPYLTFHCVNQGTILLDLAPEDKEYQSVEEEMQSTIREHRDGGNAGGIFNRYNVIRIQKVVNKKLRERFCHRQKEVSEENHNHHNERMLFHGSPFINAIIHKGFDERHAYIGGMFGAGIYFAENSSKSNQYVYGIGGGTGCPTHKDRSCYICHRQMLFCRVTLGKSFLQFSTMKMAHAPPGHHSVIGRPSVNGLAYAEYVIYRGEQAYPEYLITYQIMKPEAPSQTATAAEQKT

[10] = molecular target: Ubiquitin carboxyl-terminal hydrolase 7 (Homo sapiens, UniProt Q93009); assay: Inhibition of recombinant full length wild type human Flag-tagged USP7 expressed in human HEK293 cells using Ub-AMC as substrate by fluorometric assay
Sequence of Ubiquitin carboxyl-terminal hydrolase 7 (Q93009 whole entry): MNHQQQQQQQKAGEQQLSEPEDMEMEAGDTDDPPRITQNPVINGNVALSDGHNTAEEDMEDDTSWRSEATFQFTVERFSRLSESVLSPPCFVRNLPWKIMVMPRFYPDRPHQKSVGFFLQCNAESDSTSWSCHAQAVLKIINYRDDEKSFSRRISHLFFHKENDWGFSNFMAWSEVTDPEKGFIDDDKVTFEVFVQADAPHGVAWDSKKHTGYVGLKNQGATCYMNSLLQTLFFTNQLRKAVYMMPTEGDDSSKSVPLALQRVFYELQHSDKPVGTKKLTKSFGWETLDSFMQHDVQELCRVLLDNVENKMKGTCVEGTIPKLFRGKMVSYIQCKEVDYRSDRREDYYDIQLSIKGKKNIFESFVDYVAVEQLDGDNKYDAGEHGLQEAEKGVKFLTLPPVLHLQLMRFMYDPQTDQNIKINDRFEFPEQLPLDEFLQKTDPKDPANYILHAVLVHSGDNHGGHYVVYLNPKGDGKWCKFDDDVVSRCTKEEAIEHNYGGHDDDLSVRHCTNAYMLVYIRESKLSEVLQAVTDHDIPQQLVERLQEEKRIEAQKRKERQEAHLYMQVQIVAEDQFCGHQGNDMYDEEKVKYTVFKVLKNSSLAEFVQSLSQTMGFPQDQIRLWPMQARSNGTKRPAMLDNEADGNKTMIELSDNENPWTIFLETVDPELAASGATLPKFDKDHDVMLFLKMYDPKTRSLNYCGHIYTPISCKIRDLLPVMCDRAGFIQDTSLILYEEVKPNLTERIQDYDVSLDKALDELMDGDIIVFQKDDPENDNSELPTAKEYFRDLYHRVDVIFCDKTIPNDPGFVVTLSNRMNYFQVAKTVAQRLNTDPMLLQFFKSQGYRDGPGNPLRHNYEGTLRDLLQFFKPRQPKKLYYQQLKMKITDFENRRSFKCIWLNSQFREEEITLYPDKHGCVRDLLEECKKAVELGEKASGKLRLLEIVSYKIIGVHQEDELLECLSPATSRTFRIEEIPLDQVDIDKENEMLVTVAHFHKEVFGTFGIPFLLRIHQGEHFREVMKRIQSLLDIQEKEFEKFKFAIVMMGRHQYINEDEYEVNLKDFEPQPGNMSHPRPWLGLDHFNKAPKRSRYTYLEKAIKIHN

HCT-116 [11] = assay: Cytotoxicity in human HCT-116 cells expressing wild type APC assessed as reduction in cell viability incubated for 96 hrs by Cell Titer-Glo assay; format: functional, cell-based; details: HCT-116, 96 h
DLD-1 [12] = assay: Cytotoxicity in human DLD-1 cells expressing APC mutant assessed as reduction in cell viability incubated for 96 hrs by Cell Titer-Glo assay; format: functional, cell-based; details: DLD-1, 96 h
SW480 [13] = assay: Antiproliferative activity against human SW480 cells assessed as reduction in cell viability incubated for 72 hrs by MTT assay; format: functional, cell-based; details: SW480, 72 h
HCT-116 [14] = assay: Antiproliferative activity against human HCT-116 cells assessed as decrease in cell growth incubated for 24 hrs by MTS assay; format: functional, cell-based; details: HCT-116, 24 h
[15] = Inhibition of APC/ASEF (unknown origin) protein protein interaction incubated for 2 hrs by fluorescence polarization analysis; set-up: species or system Homo sapiens
LoVo = assay: Antiproliferative activity against human LoVo cells assessed as decrease in cell viability by MTT assay; format: functional, cell-based
DLD-1 [16] = assay: Anticancer activity against human DLD1 cells expressing APC mutant assessed as reduction in cell viability by dual-glo luciferase assay; format: functional, cell-based

pIC50 (DLD-1 [1]): 4.30
SMILES: O=c1c(-c2ccc(O)cc2)coc2cc(O)cc(O)c12 [GENISTEIN]

pIC50 (HCT-116 [2]; Homo sapiens, HCT-116, 48 h, read-out: IC50): 4.70
pIC50 (SW480 [3]): 4.70
SMILES: C=C1C(=O)[C@@]23[C@H](O)CC4C(C)(C)[C@@H](OC(C)=O)CC[C@@]4(C)[C@@H]2[C@@H]2O[C@@H]2[C@@H]1[C@H]3O (some centres undefined)

SMILES: CS(=O)(=O)c1ccccc1N1CCN(c2nc(O)c3c(n2)CCSC3)CC1
pIC50 (Mus musculus): 6.96

pIC50 (SW480 [4]): 4.78
SMILES: C=C1C(=O)[C@@]23[C@H](O)C[C@@H]4C(C)(C)CC[C@H](O)[C@@]4(COC(C)=O)[C@@H]2CC[C@H]1[C@H]3O

pIC50 (HCT-116 [5]): > 3.70
pIC50 (SW480 [6]): > 3.70
pIC50 (DLD-1 [7]): > 3.70
SMILES: O=C(/C=C/C=C/c1ccc2c(c1)OCO2)N1CCCCC1 [PIPERINE]

pIC50 [8]: 6.07
pIC50 [9]: 5.72
SMILES: COc1ccc(C2(CNC(=O)c3ccc(NC(=O)c4ccco4)cc3)CCOCC2)cc1

pIC50 [10]: 5.18
SMILES: C=C1C(=O)O[C@@H]2[C@H]3O[C@]3(C)CC/C=C(\C)CC[C@@H]12

SMILES: CC[C@H](C)C(=O)O[C@H]1CCC=C2C=C[C@H](C)[C@H](CC[C@@H]3C[C@@H](O)CC(=O)O3)[C@H]21 [MEVASTATIN]
pIC50 (HCT-116 [11]): 4.73
pIC50 (DLD-1 [12]): 5.49

pIC50 (SW480 [13]): 5.77
SMILES: C=C1C(=O)[C@]23CC[C@H]1C[C@H]2[C@@]12CCC[C@@](C)(COC1=O)[C@H]2C[C@H]3O

SMILES: O=C(O[C@@H]1Cc2c(O)cc(O)cc2O[C@@H]1c1cc(O)c(O)c(O)c1)c1cc(O)c(O)c(O)c1 [EPIGALOCATECHIN GALLATE]
pIC50 (HCT-116 [14]): 5.30

IC50 (HCT-116 [2]; time 48 hrs): 1.37 µM
pIC50 [15]: 5.99
SMILES: COc1cccc(C2=NN(c3ccc(C(=O)Nc4cc(C(F)(F)F)cc(C(F)(F)F)c4)cc3)C(c3ccc4c(ccn4C)c3)C2)c1 (centres undefined)

pIC50 (LoVo): 4.26
SMILES: Oc1ccc(/C=C/c2cc(O)cc(O)c2)cc1 [RESVERATROL]

pIC50 (DLD-1 [16]): 6.05
SMILES: CCN(C(=O)C1CCN(S(=O)(=O)c2cc(Br)cc3c2N(C(C)=O)CC3)CC1)c1cccc(C)c1
